According to patent US4920215A, “Antibiotic produced by fermentation” (Pfizer Inc., priority 1987, dated 1990):

Tested on: rumen fluid
Assay: In vitro rumen technique, propionic acid production
Details: 16 h, pH 6.8, read-out: increase of propionic acid over the control

CC[C@@H](C(=O)[C@@H](C)[C@@H](O)[C@H](C)[C@@H]1O[C@@H]([C@@H](CC)C(=O)O)CC[C@@H]1C)[C@H]1O[C@]2(C=C[C@@H](O)[C@]3(CC[C@@](C)([C@H]4CC[C@](O)(CC)[C@H](C)O4)O3)O2)[C@H](C)C[C@@H]1C [salinomycin]
activation at 10 µg/mL: ~61%
